Assay results from patent US5891917A, “Certain acrylonitrile-sulfonamide derivatives” (Sugen, Inc., priority 1997, dated 1999).

Key:
[1] = test system: chimeric receptor containing the EGFR extracellular domain and the HER2 intracellular kinase domain; test: EGFR-HER2 chimeric receptor whole cell kinase ELISA (3T3); assay type: cell-based; settings: NIH3T3 cells with EGFR/HER2 chimera, 100 nM EGF
Description: (§1) The following examples illustrate the ability of the exemplary compounds to inhibit receptor tyrosine kinases, such as HER2 and/or EGFR. The following target cells were used for cellular kinase assays: NIH3T3 clone C7 (Honegger et al., supra) engineered to over-express human EGF receptor; NIH3T3 cells engineered to over-express a chimeric receptor containing the EGFR extracellular domain and the HER2 intracellular kinase domain; the human mammary carcinoma line BT474 (ATCC HTB2) expressing HER2; and the human glioblastoma line U1242 that expresses PDGFR-beta. Growth assays were carried out using human mammary epithelial SKBR3 (ATCC HTB30) cells (SKBR3 cells over-express HER2), SKOV3 (ATCC HTB77) human ovarian cancer cell line (SKOV3 cells also over-express HER2), A431 cells (A431 cells over-express EGFR) MCF7 human breast carcinoma cells, MCF7 cells overexpressing the HER2 kinase (MCF7-HER2), NIH3T3 cells, and NIH3T3 cells overexpressing the HER2 kinase (3T3-HER2.
EGFR-HER2 Chimeric Recetor
HER2 kinase activity (EGFR-3T3) in whole cells was measured as described below:
The materials and regeants are identical to these used in example 1, the EGFR whole cell kinase assay.
A. Coat ELISA plates (Corning, 96 well, Cat. #25805-96) with 05-101 antibody at 0.5 μg per well in PBS, 100 μl final volume/well, and store overnight at 4° C. Coated plates are good for up to 10 days when stored at 4° C.
B. On day of use, remove coating buffer and replace with 100 μl blocking buffer (5% Carnation Instant Non-Fat Dry Milk in PBS). Incubate the plate, shaking, at room temperature (about 23° C. to 25° C.) for 30 minutes. Just prior to use, remove blocking buffer and wash plate 4 times with TBST buffer.
A. An NIH3T3 cell line overexpressing a chimeric receptor containing the EGFR extracellular domain and extracellular HER2 kinase domain can be used for this assay.
B. Choose dishes having 80-90% confluence for the experiment. Trypsinize cells and stop reaction by adding 10% fetal bovine serum. Suspend cells in DMEM medium (10% CS DMEM medium) and centrifuge once at 1500 rpm, at room temperature for 5 minutes.
C. Resuspend cells in seeding medium (DMEM, 0.5% bovine serum), and count the cells using trypan blue. Viability above 90% is acceptable. Seed cells in DMEM medium (0.5% bovine serum) at a density of 10,000 cells per well, 100 μl per well, in a 96 well microtiter plate. Incubate seeded cells in 5% CO2 at 37° C. for about 40 hours.
A. Check seeded cells for contamination using an inverted microscope. Dilute drug stock (10 mg/ml in DMSO) 1:10 in DMEM medium, then transfer 5 l to a […] well for a final drug dilution of 1:200 and a final DMSO concentration of 1%. Control wells receive DMSO alone. Incubate in 5% CO2 at 37° C. for two hours.
B. Prepare EGF ligand: dilute stock EGF in DMEM so that upon transfer of 10 μl dilute EGF (1:12 dilution), 100 nM final concentration is attained.
D. After 120 minutes incubation with drug, add prepared […] ligand to cells, 10 μl per well, to a final concentration of 100 nM. Control wells receive DMEM alone. Incubate, shaking, at room temperature, for 5 minutes.
E. Remove drug, EGF, and DMEM. Wash cells twice with PBS. Transfer HNTG* to cells, 100 μl per well. Place on ice for 5 minutes. Meanwhile, remove blocking buffer from other ELISA plate and wash with TBST as described above.
F. With a pipette tip securely fitted to a micropipettor, scrape cells from plate and homogenize cell material by repeatedly aspirating and dispensing the HNTG* lysis buffer. Transfer lysate to a coated, blocked, and washed ELISA plate. Incubate shaking at room temperature for one hour.
G. Remove lysate and wash 4 times with TBST. Transfer freshly diluted anti-Ptyr antibody to ELISA plate at 100 μl per well. Incubate shaking at room temperature for 30 minutes in the presence of the anti-Ptyr antiserum (1:3000 dilution in TBST).
H. Remove the anti-Ptyr antibody and wash 4 times with TBST. […]

HER2 = target: T1, HER2 (Homo sapiens, UniProt P04626); test: HER2-BT474 whole cell ELISA; assay type: cell-based; settings: BT-474 cells
T1 construct: a human breast tumor cell line which expresses high levels of HER2 kinase; endogenous in cells; host or cells: BT-474 human breast tumor cells
Description: as §1
HER2-BT474 assays measuring whole cell HER2 activity was carried out as described below:
1. The cell line used in this assay is BT-474 (ATCC HBT20), a human breast tumor cell line which expresses high levels of HER2 kinase.
2. BT-474 is grown in an incubator with 5% CO2 at 37° C. The growth media is RPMI+10% FBS+GMS-G (Gibco supplement)+Glutamine.
(a) Grow BT474 cells in tissue culture dishes (10 cm, Corning 25020-100) to 80-90% confluence and collect using Trypsin-EDTA (0.25%, GIBCO).
(b) Resuspend the cells in fresh medium and transfer to 96-well tissue culture plates (Corning, 25806-96) at about 25,000-50,000 cells/well (100 μl/well). Incubate the cells in 5% CO2 at 37° C. overnight.
(a) Coat the ELISA plate (Corning 25805-96) with anti HER2 antibody at 0.5 μg/well in 150 μl PBS overnight at 4° C., and seal with parafilm. The antibody coated plates can be used up to 2 weeks, when stored at 4° C.
(b) On the day of use, remove the coating solution, replace with 200 μl of Blocking Buffer, shake the plate, and then remove the blocking buffer and wash the plate just before adding lysate.
(a) […] the drugs in serum-free condition. Before adding drugs, the old media is replaced with serum-free RPMI (90 μl/well)
(b) Dilute drug stock (in 100% DMSO) 1:10 with RPMI, and transfer 10 μl/well of this solution to the cells to achieve a final drug DMSO concentration at 1%. Incubate the cells in 5% CO2 at 37° C.
(c) Prepare fresh cell lysis buffer (HNTG*)
(d) After drug preincubation for two hours remove all the solution from the plate, transfer HNTG* 100 μl/well to the cells, and shake for 10 minutes.
(e) Use a 12-channel pipette to scrape the cells from the plate, and homogenize the lysate by repeat aspiration and dispensing. Transfer all the lysate to the ELISA plate and shake for 1 hour.
(f) Remove the lysate, wash the plate, add anti-pTyr (1:3,000 with TBST) 100 μl/well, and shake for 30 minutes.
(g) Remove anti-pTyr, wash the plate, add goat anti-rabbit IgG conjugated antibody (1:5,000 with TBST) 100 μl/well, and shake for 30 minutes.
(h) Remove anti-rabbit IgG antibody, wash the plate, and add fresh ABTS/H2 O2 (1.2 μl 30% H2 O2 to 10 ml ABTS) 100 μ/well to the plate to start color development, which usually takes 20 minutes.
(I) Measure OD 410 nm, Dynatec MR5000.

T1 sequence (P04626 23-1255): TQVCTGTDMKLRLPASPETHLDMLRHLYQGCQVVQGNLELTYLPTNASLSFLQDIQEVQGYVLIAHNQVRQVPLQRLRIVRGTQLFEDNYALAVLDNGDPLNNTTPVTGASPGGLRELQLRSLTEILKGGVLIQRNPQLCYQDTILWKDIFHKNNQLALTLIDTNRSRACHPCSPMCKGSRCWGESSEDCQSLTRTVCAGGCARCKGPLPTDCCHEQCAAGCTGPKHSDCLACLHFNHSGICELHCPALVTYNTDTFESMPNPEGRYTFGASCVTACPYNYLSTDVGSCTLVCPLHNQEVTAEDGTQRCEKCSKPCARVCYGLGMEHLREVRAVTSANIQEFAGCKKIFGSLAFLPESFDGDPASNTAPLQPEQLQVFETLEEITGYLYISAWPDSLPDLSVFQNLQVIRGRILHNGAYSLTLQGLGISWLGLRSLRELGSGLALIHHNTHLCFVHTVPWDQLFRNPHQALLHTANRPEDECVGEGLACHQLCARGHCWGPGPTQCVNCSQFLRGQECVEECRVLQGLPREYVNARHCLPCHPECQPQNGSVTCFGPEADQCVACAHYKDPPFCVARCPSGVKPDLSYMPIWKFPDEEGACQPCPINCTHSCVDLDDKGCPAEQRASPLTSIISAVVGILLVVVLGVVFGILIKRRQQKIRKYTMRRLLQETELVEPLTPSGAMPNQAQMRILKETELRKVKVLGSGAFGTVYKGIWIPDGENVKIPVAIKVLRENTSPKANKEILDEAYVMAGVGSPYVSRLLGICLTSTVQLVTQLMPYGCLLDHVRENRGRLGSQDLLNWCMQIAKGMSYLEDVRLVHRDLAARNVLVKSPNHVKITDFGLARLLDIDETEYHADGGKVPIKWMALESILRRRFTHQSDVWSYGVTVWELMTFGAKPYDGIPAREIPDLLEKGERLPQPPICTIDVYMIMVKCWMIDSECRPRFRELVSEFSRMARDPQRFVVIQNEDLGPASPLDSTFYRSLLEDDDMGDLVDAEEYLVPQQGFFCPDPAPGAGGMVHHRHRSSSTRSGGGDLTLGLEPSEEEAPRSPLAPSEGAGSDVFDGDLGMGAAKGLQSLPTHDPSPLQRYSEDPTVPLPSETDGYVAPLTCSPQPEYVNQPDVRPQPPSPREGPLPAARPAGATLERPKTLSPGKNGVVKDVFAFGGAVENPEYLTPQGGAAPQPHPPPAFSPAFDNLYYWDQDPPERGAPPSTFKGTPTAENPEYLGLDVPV

Compound	IC50 [1] [µM]	IC50 (HER2) [µM]
CC(C)(C)c1cc(/C=C(\C#N)S(=O)(=O)c2cccs2)cc(C(C)(C)C)c1O [Compound 742]	27.8	0.2
N#C/C(=C\c1ccc(O)cc1Cl)S(=O)(=O)NCCCc1ccccc1 [Compound 734]	21.7	1.8
N#C/C(=C\c1ccc(O)cc1Cl)S(=O)(=O)NCc1ccccc1 [Compound 733]	83.5	5.8
N#C/C(=C\c1ccc(O)c(O)c1)S(=O)(=O)c1cccs1 [Compound 743, (E)-3-(3,4-Dihydroxyphenyl)-2-[(thien-2-yl)sulfonyl]acrylonitrile]	–	12.6
Cc1cc(/C=C(\C#N)S(=O)(=O)Cc2cccc(C(F)(F)F)c2)cc(C)c1O [Compound 739]	> 100	4.1
CC(C)(C)c1cc(/C=C(\C#N)S(=O)(=O)c2ccc(F)cc2)cc(C(C)(C)C)c1O [Compound 740]	> 100	0.4
CC(C)(C)c1cc(/C=C(\C#N)S(=O)(=O)Cc2cccc(C(F)(F)F)c2)cc(C(C)(C)C)c1O [Compound 735]	57.4	0.3

The next lines start with the values.

IC50 [1] [µM]	IC50 (HER2) [µM]	Compound
8.1	0.3	CC(C)(C)c1cc(/C=C(\C#N)S(=O)(=O)c2ccsc2)cc(C(C)(C)C)c1O [Compound 746]
–	> 50	CC(C)c1cc(/C=C(\C#N)S(=O)(=O)/C(C#N)=C/c2cc(C(C)C)c(O)c(C(C)C)c2)cc(C(C)C)c1O [Compound 745]
36.4	1.3	CC(C)c1cc(/C=C(\C#N)S(=O)(=O)c2ccsc2)cc(C(C)C)c1O [Compound 738]
20.9	1.9	CC(C)c1cc(/C=C(\C#N)S(=O)(=O)NCc2ccccc2)cc(C(C)C)c1O [Compound 732]
22.7	0.8	CC(C)c1cc(/C=C(\C#N)S(=O)(=O)Cc2cccc(C(F)(F)F)c2)cc(C(C)C)c1O [Compound 736]
13.9	–	CC(C)c1cc(/C=C(\C#N)S(=O)(=O)c2ccc(F)cc2)cc(C(C)C)c1O [Compound 741, (E)-3-(3,5-Diisopropyl-4-hydroxyphenyl)-2-(4-fluorophenylsulfonyl)acrylonitrile]
17.2	0.3	CC(C)c1cc(/C=C(\C#N)S(=O)(=O)c2ccccc2)cc(C(C)C)c1O [Compound 731]
–	4.5	Cc1cc(/C=C(\C#N)S(=O)(=O)c2ccc(F)cc2)cc(C)c1O [Compound 744]
32	1	CC(C)c1cc(/C=C(\C#N)S(=O)(=O)c2cccs2)cc(C(C)C)c1O [Compound 737]
